{"source": "patent US9127079B2", "about": "“Inhibitors of phosphatase and tensin homolog (PTEN) conjugates” (THE UNIVERSITY OF BRITISH COLUMBIA, priority 2009, dated 2015)", "key": {"PTEN": {"test_system": "PTEN", "test": "Western blotting of nuclear fractions from cultured neurons: PTEN nuclear translocation", "format": "cell-based, rat", "conditions": "NMDA stimulation", "experimental": "Dissociated cultures of rat cortical or hippocampal neurons were prepared from 18-d-old Sprague Dawley rat embryos as described previously (Mielke and Wang 2005). To obtain mixed cultures enriched with neurons, uridine (10 μM) and 5-Fluor-T-deoxyuridine (10 μM) were added to the culture medium at 3 d in vitro (DIV) and maintained for 48 h to inhibit non-neuronal cell proliferation before the cultures were returned to the normal culture medium. Mature neurons (12-14 DIV) were used for experiments.\nIn order to induce excitotoxicity, 12-14 DIV cultured neurons were washed and transferred to Mg2+-free extracellular solution (ECS) containing the following (in mM): 25 HEPES acid, 140 NaCl, 33 glucose, 5.4 KCl, and 1.3 CaCl2, with pH 7.35 and osmolarity 320-330 mOsm. […]\nFor western blotting, 10 μg of the nuclear extract or 40 μg of total cell lysate (solubilized by 1% SDS, 1 mM EGTA, 1 mM EDTA, 1 mM DTT, 2 mM sodium orthovanadate, and protease inhibitors cocktail in PBS) from each treatment condition was separated with SDS-PAGE, transferred onto a polyvinylidene difluoride (PVDF) membrane, and probed with the relevant antibodies. […] Band intensities were quantified using NIH ImageJ™ software and normalized to the quantity of a nuclear marker or β-tubulin in each sample lane."}, "[1]": {"test": "Body asymmetry (elevated body swing test) after cerebral ischemia", "format": "in vivo, rat", "conditions": "vs Peptide-K13R, Peptide-K289, saline", "experimental": "Adult male Sprague-Dawley rats (weight 200 g) were used in this study. All surgical procedures were performed using sterile/aseptic techniques in accordance with Institutional guidelines. Rats were anesthetized with chloral hydrate (0.4 g/kg IP) and subjected to cerebral ischemia. Ligation of the right middle cerebral artery (MCA) and bilateral common carotids arteries (CCAs) was performed by methods described previously (Shyu et al. 2005). The CCAs were clamped with non-traumatic arterial clips. The right MCA was ligated with a 10-0 nylone suture. After 90 min of ischemia, the suture on the MCA and the arterial clips on the CCAs were removed to allow reperfusion. Core body temperature was monitored with a thermistor probe (Hewlett-Packard™ Model 21090A probe, Hewlett-Packard Company™, Andover, Mass.), and maintained at 37° C. with a heating pad during anesthesia. […]\nBehavioral assessments were measured on day 28 after stroke. […] The baseline-test scores were recorded in order to normalize those taken after cerebral ischemia. The elevated body swing test (EBST) was used to assess body asymmetry after MCA ligation and evaluated quantitatively as previously described (Shyu et al. 2004). […] The frequency of initial head swing contra-lateral to the ischemic side was counted in twenty continuous tests and was normalized, as follows: % recovery=[1−(lateral swings in twenty tests−10)/10×100%. […]"}}}
{"substance": "KEIVSRNKRRYQED-YGRKKRRQRRR (KEIVSRNKRRYQEDYGRKKRRQRRR; PTEN K13 interference peptide conjugated to TAT protein transduction domain) [Peptide-K13]", "values": [{"measurement": "PTEN nuclear translocation (western blotting of nuclear fractions)", "setting": "PTEN", "value": "prevents PTEN nuclear translocation"}, {"measurement": "recovery in body swing tests", "setting": "[1]; given 2 hours after ischemia", "value": "much more recovery"}, {"measurement": "recovery in body swing tests", "setting": "[1]; given 6 hours after ischemia", "value": "much more recovery"}]}
